Source: patent US20230398077A1, “SILICASOME NANOCARRIER FOR METAL-BASED DRUG DELIVERY” (The Regents of the University of California, priority 2020, published 2023)

Experiments:
[1] = Pt drug loading of MSNP/silicasome (EE %, LC %) by ICP-MS/ICP-OES; format: physicochemical; details: DACHPt incubated with bare MSNP, Pt:MSNP 1:5 w/w
Description: In various embodiments the silica nanoparticles are loaded with platinum-based drugs using a combination of coordination and electrostatic interactions. Since the silanol group density on the silica nanoparticle surface(s) (e.g., pore surfaces) an important role in the surface binding of the activated platinum compound (e.g., DACHPt) (see FIG. 2), it is desirable to control the pH during drug loading. Thus, the loading efficiency and capacity was optimized through control of. pH, incubation time, the soaking process, and variation of the drug/particle ratio, etc. Thus, for example, 20 mg MSNP resuspend in 1 mL HEPES buffer (0.1 M, pH 8.5) was mixed with DACHPt complex (4 mg Pt, equal to 8 mg OX). The mixture was sonicated in water bath sonication for 10 mins and then spun down at 15 K rpm for 10 mins. Non-bound Pt in the supernatant, as detected by ICP-OES was used to determine the loading capacity [%=(total Pt—Pt in supernatant)/amount of MSNP*100} and loading efficiency [%=(total Pt—Pt in supernatant)/total Pt*100].
Sixty-five nm bare MSNPs were synthesized at 18 L scale and purified by extensive acidic ethanol washing to remove the CTAC detergent, as reported previously^[4b]. In order to determine the optimal loading condition, we experimented with multiple rounds of drug loading to find the optimal pH, incubation time, sonication condition, and particle/drug feed ratio, etc. Details of the protocol optimization appear online (FIG. 8). In the case of DACHPt loading, purified MSNP (20 mg) from ethanol stock solution was spun at 15,000 rpm for 15 min, and resuspend in 1 mL HEPES buffer (200 mM, pH 8.5). The MSNP suspension was spun down and resuspend in 0.5 mL HEPES buffer (200 mM, pH 8.5). Then, 160 μL DACHPt solution (25 mg/mL, e.q. Pt) and 340 μL pure H2O were added to the MNSP suspension (40 mg/mL, 0.5 mL). The mixture was sonicated for 10 min. In a sonication water bath. The DACHPt-laden MSNPs were spun down at 15,000 rpm for 12 min, followed by collecting the supernatant for Pt elemental analysis by ICP-MS. […]

calreticulin (CRT) = assay: Surface CRT expression in KPC cells (immunofluorescence, flow cytometry); format: cell-based, murine; details: 500 μM, 24 h
Description: Surface CRT expression was visualized by immunofluorescence (IF) staining using an anti-CRT primary antibody, followed by the incubation with Alex488 conjugated secondary antibody. Briefly, ˜1.5×10^4 KPC cells were seeded into an 8-well confocal chamber slide. After 24 h, the cell culture medium was replaced with fresh medium containing the chemo agents, following which the cells were incubated for another 24 h. The cells were washed twice in cold PBS and fixed with 4% paraformaldehyde (PFA) at room temperature (r.t.) for 15 mins. After fixation, the cells were washed twice with cold PBS and blocked with 1% BSA in PBS for 0.5 h. The cells were incubated with anti-CRT primary antibody (ab2907, 1:200) in 200 μL blocking solution at 4° C. overnight, followed by washing with PBS and staining with secondary antibody (Alex488 conjugated goat anti-rabbit secondary antibody, A-11008, 1:1000) together with the nuclear dye, Hoechst 33342, at r.t. for 1 h. The cells were washed with PBS, then imaged by using a Leica SP8-MD confocal microscope under the 100× objective lens.
Surface CRT expression was measured by flow cytometry as previously described^[24a]. Briefly, 7.5×10^4 KPC cells were seeded into 24-well plates. […] After washing in cold PBS, the cells were assessed in a LSRII flow cytometer (BD Biosciences). […]

HMGB1 = HMGB1 release from KPC cells (ELISA); format: cell-based, murine; details: 500 μM, 24 h
Description: Surface CRT expression was measured by flow cytometry as previously described^[24a]. Briefly, 7.5×10^4 KPC cells were seeded into 24-well plates. After cell attachment, KPC cells were treated with free oxaliplatin and DACHPt (500 μM), for 24 h. The loosely attached cells were combined with trypsin-treated at adherent cells. The cells were washed in cold PBS and then stained on ice with a primary anti-CRT antibody (Abcam, ab2907, 1:140) in 200 μL BD staining buffer for 0.5 h. The cells were washed in cold PBS and stained with an […] secondary antibody (LifeScience Technologies #A21244) for 30 min on ice. After washing in cold PBS, the cells were assessed in a LSRII flow cytometer (BD Biosciences). In the same experiment, the cell culture media were spun down to collect the supernatants for HMGB1 detection by an ELISA kit (Catalog #ST51011, IBL International GmbH), according to the manufacture's instruction.

KPC cells [2] = assay: Vaccination study with chemo-induced dying KPC cells, re-challenge on contralateral side; details: for infiltration by CD8^+ T-cells / number of Foxp3^+ regulatory T cell (Treg) / increase in CD8^+/Tregs cell ratio compared to PBS control: IHC of contralateral tumors; for increase in CD8^+/Tregs cell ratio compared to PBS control: day 26; for tumor growth on the contralateral side: vaccination with drug-treated dying KPC cells, p<0.05
Description: In order to determine whether these in vitro ICD markers actually represent an in vivo immunogenic effect as specified by a consensus ICD document^[26], we also performed a vaccination study in a syngeneic KPC animal model. Suspensions of dying tumor cells, generated by oxaliplatin or DACHPt treatment for 24 h, were subcutaneously injected on 2 occasions (7 days apart) in left flank of immunocompetent B6129SF1/J mice. This was followed by tumor re-challenge on the contralateral side using untreated KPC cells (FIG. 4, panel C).
Moreover, we also validated the ICD effect of DACHPt in a vaccination experiment, using a published protocol^[26]. Briefly, eight million KPC cells were seeded in a tissue culture dish. After cellular attachment, DACHPt or free oxaliplatin (500 μM) were added for 24 h. Cells were collected and washed before being resuspended in 0.8 mL cold PBS. For vaccination, each mouse received subcutaneous injection (SC) of a 100 μL suspension of chemo-treated cells in the right flank. Control animals received PBS only. The vaccination was repeated after 7 days. Fourteen days after the 1st vaccination, the same mice received the SC injection of healthy KPC cells (1×10^6 cells) in the contralateral side. Tumor growth was measured by a digital caliper every 2-3 days. At the conclusion of the vaccination experiment (Day 26), animals were sacrificed and the tumors collected for IHC immunophenotyping of CD8^+ T cells and FoxP3^+ Treg cells. Primary antibodies to CD8 (#14-0808-82, 1:100) and FoxP3 (#13-5773-82, 1:200) were purchased from ThermoFisher. […] The slides were scanned and images were assessed by using Aperio ImageScope software (Leica).

orthotopic KPC tumor [3] = assay: Anti-PDAC efficacy in orthotopic KPC model; format: in vivo, B6129SF1/J mice; details: Pt 2 mg/kg IV every 3 days, 3 administrations, day 17
Description: An efficacy study was performed by IV injection of the silicasome carrier eight days after orthotopic KPC implantation in the pancreas of B6129SF1/J mice (FIG. 3, panel D). This corresponds to beginning the treatment at a primary tumor size of 5-10 mm in the absence of macro-metastases^[21]. IV injections were repeated every 3 days for a total of 3 repeats. The control groups included animals receiving IV saline or free oxaliplatin. The tumor growth at the primary and metastatic sites was followed by IVIS bioluminescence imaging up to conclusion of the experiment on day 17 (FIG. 3, panel D, right).
KPC-luc cells (˜1×10^6) were orthotopically injected into the pancreas in mice. […] The control includes saline as well as free oxaliplatin. This dose arrangement is in agreement with the literature^[27]. Tumor-bearing mice received IV injection of the indicated therapy every 3 days for a total of 3 administrations. Before animal sacrifice (72 h post the last IV injection), the mice received intraperitoneal injection of D-luciferin, followed by ex vivo bioluminescence imaging using an IVIS imaging system. […] The H&E slides for toxicity assessment were read in a blinded fashion by an experienced veterinary pathologist.

orthotopic KPC tumor [4] = assay: Survival study in orthotopic KPC model w/wo anti-PD-1; format: in vivo, mice; details: agent alone; Pt 2 mg/kg IV, anti-PD-1 100 μg IP; Kaplan-Meier, Log Rank
Description: Kaplan-Meier plots were used to display the survival rate of the different animal groups (n=5-7, *p<0.05, Log Rank test).
Tumor-bearing mice were randomly assigned into 6 groups (n=5-7) and received IV injection of Pt drug formulations twice per week as designed in FIG. 6. Anti-PD-1 antibody was injected at 100 μg/animal intraperitoneally two days later after each Pt chemo injection. To assess survival rate, animals were monitored daily up to the stage of spontaneous death or approaching moribund status based on the criteria of extensive abdominal ascites, severe dehydration, significant weight loss (>20%), extreme weakness or inactivity^[4, 21, 30] The survival data were plotted as Kaplan-Meier curves, followed by statistical analysis by Log Rank testing (Mantel-Cox), using GraphPad Prism 7.00 software.

KPC cells [5] = assay: Cytotoxicity MTS assay in KPC cells; details: 500 μM, 24 h
Description: The DACHPt silicasome was tested in a list of cancer cell lines to determine the in vitro killing effect, using a MTS assay. […] The MTS assay was conducted with free DACHPt and oxaliplatin as controls. Data are expressed as mean±SD. n=3.
The MTS assay was performed at 24 h after the treatment with oxaliplatin or DACHPt in KPC cells. Data represents mean±SD, n=3.
Cytotoxicity testing of free Pt drugs or drug-laden silicasomes was performed by using a standard MTS assay (CellTiter 96© AQueous One Solution Cell Proliferation Assay, Promega). PDAC cells were plated at a density of 5×10^3 cells per well in a 96-well plate and cultured for 24 h before the medium was replaced with fresh medium containing free OX, free DACHPt or DACHPt laden silicasome at indicated concentrations. Non-treated cells were used as control. After treatment for 48 h, the medium was replaced with 100 μL of fresh medium containing MTS solution (5:1, v/v medium/CellTiter 96© Aqueous stock solution), and the cells were further cultured at 37° C. for 1 h. The absorbance of the culture wells at 490 nm was recorded by a microplate reader (M5e, Molecular Device, USA). Wells receiving the MTS solution without cells were used as blank. The relative cell viability (%) is [(the absorption of treated well−blank)/(the absorption of control well−blank)]×100%.

[6] = PK study, plasma Pt by ICP-MS after single IV injection; details: Pt dose 4.95 mg/kg, one-compartment model
Description: IV injection of non-encapsulated oxaliplatin (at identical Pt molar dose) served as the free drug control because free DACHPt leads to drug precipitates when interacting with Cl ions in the blood^[7b]. Blood collection was performed at 5 mins, 3 h, 6 h, 24 h and 48 h after IV injection, followed by ICP-MS quantification.
The PK study was performed on 10-12-week-old healthy female B6129SF1/J mice. […] After separation of the plasma fraction, the plasma samples were digested with HCl:HNO3 3:1, v/v) in a hot-block, before replenishment in 2% HNO3 for ICP-MS analysis of the Pt content. The PK data were analyzed by PKSolver software, using a one-compartment model^[4].

[7] = Safety assessment by H&E histology of bone marrow and major organs (efficacy study)
Description: KPC-luc cells (˜1×10^6) were orthotopically injected into the pancreas in mice. […] The control includes saline as well as free oxaliplatin. […] Tumor-bearing mice received IV injection of the indicated therapy every 3 days for a total of 3 administrations. Before animal sacrifice (72 h post the last IV injection), the mice received intraperitoneal injection of D-luciferin, followed by ex vivo bioluminescence imaging using an IVIS imaging system. Primary tumor and major organs (e.g. sternum, heart, liver, spleen, lung and kidneys) were harvested and fixed in 10% formalin, followed by paraffin embedding and sectioning to provide 4 μm slices for histological analysis in the UCLA Translational Pathology Core Laboratory (TPCL). H&E staining was performed to look at the pathological abnormality in mice receiving different treatments. The H&E slides for toxicity assessment were read in a blinded fashion by an experienced veterinary pathologist.

encapsulation efficiency (EE %) ([1]; neutral pH 7.4) [%]	encapsulation efficiency (EE %) ([1]; pH 8.5, before lipid coating) [%]	encapsulation efficiency (EE %) ([1]; weak acidic pH 5.5) [%]	SMILES	cell surface fluorescence of CRT (calreticulin (CRT))	HMGB1 release into the supernatant (HMGB1)	infiltration by CD8^+ T-cells (KPC cells [2])	number of Foxp3^+ regulatory T cell (Treg) (KPC cells [2])	increase in CD8^+/Tregs cell ratio compared to PBS control (KPC cells [2]) [fold]	tumor free mice (out of 6) (KPC cells [2]; vaccination study)	tumor growth on the contralateral side (KPC cells [2])	tumor inhibition (primary tumor weight) (orthotopic KPC tumor [3]) [%]	survival outcome (orthotopic KPC tumor [4])	killing of cells / compromised cell viability (MTS) (KPC cells [5]) [%]	circulatory half-life (t1/2) [6] [min]	histology of major organs (liver, spleen, kidney, lung, heart) [7]	reduction in cellularity of the hemopoetic cells in the bone marrow [7] [%]
60	~75	25	NC1CCCCC1N.[Pt+2] (stereo not shown) [DACHPt, (1,2-diaminocyclohexane)platinum(II)]	significant increase	increase of released HMGB1	increase in infiltration	reduced number	6	1	growth retardation	–	–	–	–	–	–
–	–	–	O=C1[O][Pt]2([NH][C@@H]3CCCC[C@H]3[NH]2)[O]C1=O [oxaliplatin]	significant increase	increase of released HMGB1	increase in infiltration	reduced number	4.8	–	growth retardation	~5	No obvious benefit	70	21 ± 10.2	No major histological abnormalities	> 50
